Source: PubChem BioAssay AID1963982 (Molecular Pharmacology Branch, DTP, NCI, 2024)

Test system: 313798-341-R-J2-PDC spheroids, viability
Assay: Anticancer human tumor 313798-341-R-J2-PDC patient-derived cervical squamous cell carcinoma cell line growth inhibition [PI3K]
Settings: spheroids with HUVEC and MSC; for IC50: curve of first compound; for viability, T/C: stronger effect = lower value
Outline: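 Spheroid viability read-out. Co-cultures contained the tumor line plus HUVEC and human MSCs. Each agent was paired with a PI3K inhibitor (inavolisib, alpelisib, duvelisib, copanlisib) across half-log dilutions starting at clinical Cmax, or at 10 microM when Cmax was unknown.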

[1] = second compound 0.0316 µM, first compound 0.0316 µM
[2] = second compound 0.0316 µM, first compound 0.1 µM
[3] = second compound 0.0316 µM, first compound 0.316 µM
[4] = second compound 0.0316 µM, first compound 1 µM
[5] = second compound 0.0316 µM, first compound 3.16 µM
[6] = second compound 0.0316 µM, first compound 10 µM
[7] = second compound 0.1 µM, first compound 0.0316 µM
[8] = second compound 0.1 µM, first compound 0.1 µM
[9] = second compound 0.1 µM, first compound 0.316 µM
[10] = second compound 0.1 µM, first compound 1 µM
[11] = second compound 0.1 µM, first compound 3.16 µM
[12] = second compound 0.1 µM, first compound 10 µM
[13] = second compound 0.316 µM, first compound 0.0316 µM
[14] = second compound 0.316 µM, first compound 0.1 µM
[15] = second compound 0.316 µM, first compound 0.316 µM
[16] = second compound 0.316 µM, first compound 1 µM
[17] = second compound 0.316 µM, first compound 3.16 µM
[18] = second compound 0.316 µM, first compound 10 µM
[19] = second compound 1 µM, first compound 0.0316 µM
[20] = second compound 1 µM, first compound 0.1 µM
[21] = second compound 1 µM, first compound 0.316 µM
[22] = second compound 1 µM, first compound 1 µM
[23] = second compound 1 µM, first compound 3.16 µM
[24] = second compound 1 µM, first compound 10 µM
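Note: spheroids exposed to compounds for seven days.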
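Throughout, for viability, T/C: 100% = DMSO vehicle control viability.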

C=CC(=O)N1CCN(c2nc(=O)n(-c3c(C)ccnc3C(C)C)c3nc(-c4c(O)cccc4F)c(F)cc23)C(C)C1 (centres undefined) + CC(Nc1ncnc2nc[nH]c12)c1cc2cccc(Cl)c2c(=O)n1-c1ccccc1
IC50 (second compound 0.0316 µM): > 10 µM | IC50 (second compound 0.1 µM): > 10 µM | IC50 (second compound 0.316 µM): > 10 µM | IC50 (second compound 1 µM): > 10 µM | IC50 (second compound 3.16 µM): > 10 µM | IC50 (second compound 10 µM): > 10 µM | viability, T/C [1]: 112% | viability, T/C [2]: 102% | viability, T/C [3]: 113% | viability, T/C [4]: 100% | viability, T/C [5]: 103% | viability, T/C [6]: 94.9% | viability, T/C [7]: 89.4% | viability, T/C [8]: 96.2% | viability, T/C [9]: 99.1% | viability, T/C [10]: 99.8% | viability, T/C [11]: 102% | viability, T/C [12]: 102% | viability, T/C [13]: 106% | viability, T/C [14]: 91.5% | viability, T/C [15]: 106% | viability, T/C [16]: 98.1% | viability, T/C [17]: 104% | viability, T/C [18]: 92.9% | viability, T/C [19]: 102% | viability, T/C [20]: 95.4% | viability, T/C [21]: 102% | viability, T/C [22]: 90.3% | viability, T/C [23]: 98.2% | viability, T/C [24]: 102% | viability, T/C (second compound 3.16 µM, first compound 0.0316 µM): 110% | viability, T/C (second compound 3.16 µM, first compound 0.1 µM): 94.1% | viability, T/C (second compound 3.16 µM, first compound 0.316 µM): 87.6% | viability, T/C (second compound 3.16 µM, first compound 1 µM): 99.5% | viability, T/C (second compound 3.16 µM, first compound 3.16 µM): 100% | viability, T/C (second compound 3.16 µM, first compound 10 µM): 91.9% | viability, T/C (second compound 10 µM, first compound 0.0316 µM): 87.7% | viability, T/C (second compound 10 µM, first compound 0.1 µM): 85.2% | viability, T/C (second compound 10 µM, first compound 0.316 µM): 98.2% | viability, T/C (second compound 10 µM, first compound 1 µM): 84.1% | viability, T/C (second compound 10 µM, first compound 3.16 µM): 90.4% | viability, T/C (second compound 10 µM, first compound 10 µM): 78.3%

Cn1nccc1Nc1nccc(-c2ccn(C(CO)c3ccc(Cl)c(F)c3)c(=O)c2)n1 (centres undefined) + CC(Nc1ccc2c(c1)OCCn1cc(N3C(=O)OCC3C(F)F)nc1-2)C(N)=O
IC50 (second compound 0.00316 µM): > 10 µM | IC50 (second compound 0.01 µM): > 10 µM | IC50 (second compound 0.0316 µM): > 10 µM | IC50 (second compound 0.1 µM): > 10 µM | IC50 (second compound 0.316 µM): > 10 µM | IC50 (second compound 1 µM): 0.219 µM | viability, T/C (second compound 0.00316 µM, first compound 0.0316 µM): 98.2% | viability, T/C (second compound 0.00316 µM, first compound 0.1 µM): 96% | viability, T/C (second compound 0.00316 µM, first compound 0.316 µM): 90.5% | viability, T/C (second compound 0.00316 µM, first compound 1 µM): 97.2% | viability, T/C (second compound 0.00316 µM, first compound 3.16 µM): 103% | viability, T/C (second compound 0.00316 µM, first compound 10 µM): 100% | viability, T/C (second compound 0.01 µM, first compound 0.0316 µM): 98.7% | viability, T/C (second compound 0.01 µM, first compound 0.1 µM): 97.9% | viability, T/C (second compound 0.01 µM, first compound 0.316 µM): 87.9% | viability, T/C (second compound 0.01 µM, first compound 1 µM): 111% | viability, T/C (second compound 0.01 µM, first compound 3.16 µM): 121% | viability, T/C (second compound 0.01 µM, first compound 10 µM): 102% | viability, T/C [1]: 109% | viability, T/C [2]: 98.6% | viability, T/C [3]: 102% | viability, T/C [4]: 112% | viability, T/C [5]: 115% | viability, T/C [6]: 99.5% | viability, T/C [7]: 98% | viability, T/C [8]: 95% | viability, T/C [9]: 93.6% | viability, T/C [10]: 94.8% | viability, T/C [11]: 89.4% | viability, T/C [12]: 80.2% | viability, T/C [13]: 77% | viability, T/C [14]: 66.4% | viability, T/C [15]: 65.7% | viability, T/C [16]: 58.5% | viability, T/C [17]: 66.8% | viability, T/C [18]: 51.6% | viability, T/C [19]: 59% | viability, T/C [20]: 46.1% | viability, T/C [21]: 46.8% | viability, T/C [22]: 46.5% | viability, T/C [23]: 52.7% | viability, T/C [24]: 34.9%
